Assays:
[1] = in vitro study of arginine, CGP and HPC, enamel microhardness (FIG. 3); design: species or system bovine; settings: after 10 days of exposure
Source text: The in vitro study used bovine tooth enamel slabs which were polished and then subjected to an initial tooth softening step using lactic acid. An initial microhardness measurement was then made on each enamel specimen. The enamel specimens were subjected to four pH cycles per day, each cycle comprising a thirty-minute acid demineralization step followed by a twenty-minute lozenge remineralization step. Final microhardness measurements were taken on each specimen after 10 days of treatment and after 20 days of treatment. A fluoride dentifrice and a no-lozenge control sample were analyzed according to the same procedure for comparison purposes.
The latter two alternatives, chitosan and biofilm dispersing agents, were ruled out because they lacked approval for food use. Arginine was selected as the leading candidate for further evaluation. A new in vitro study was undertaken to evaluate arginine alone and in combination with CGP and HPC. CGP alone, CGP with HPC and fluoride were also investigated. The testing procedure was substantially the same as the in vitro study for calcium salts.
The height of each bar represents the change in the KHN as calculated by ΔKHN=KHN10-DAY−KHNINITIAL.

[2] = sugar alcohol assessment of salivary flow and time in mouth (FIG. 4); format: in vivo; settings: test subjects using a mint vs at rest with no mint; preliminary results
Source text: In addition to evaluating additives for their ability to provide tooth strengthening properties, the inventors also investigated a number of sugar alcohols, individually and in combination, for their ability to increase salivary flow and TIM. The investigation included dual layer formulations as well as compressed tablets. Greater salivary flow is desirable to create calcium delivery and increased TIM provides greater delivery time for active ingredients to have an effect. In FIG. 4, the blue bars represent the average salivary flow difference (in ml/min) between test subjects at rest with no mint versus test subjects using a mint. The green bars represent the average dissolution time in seconds/1000.

calcium glycerophosphate [CGP]
change in enamel microhardness (ΔKHN) [1]: increase in microhardness that was very similar to the sample for fluoride

Cl.N=C(N)NCCC[C@H](N)C(=O)O [arginine HCl]
change in enamel microhardness (ΔKHN) [1]: did not produce significant results

N=C(N)NCCC[C@H](N)C(=O)O [Arginine]
change in enamel microhardness (ΔKHN) [1]: did not produce significant results

OC[C@@H](O)[C@@H](O)CO [erythritol]
average salivary flow difference [2]: stimulated salivary flow

— US20180325814A1, “CONFECTIONERY FOR ORAL CARE APPLICATIONS” (The Hershey Company, priority 2017, published 2018)
